Columns and labels:
[1] = tested on: Streptococcus pneumoniae cells; assay: Screening for non-animal derived lytic agents (serotypes 1 and 6B PS release by SEC-HPLC; lytA mutants); format: cell-based; settings: screening studies with serotypes 1 and 6B and lytA mutants
Method: Cell Lysis: Compounds to be tested were added to fermentation broth at a final concentration of 0.1 to 0.01% (v/v) and the solution was allowed to incubate at 37° C. for one hour. The solution was then stored at 2-8° C. overnight. The following morning the solution was centrifuged to remove all cell debris. The cell-free broth was analyzed by SEC-HPLC to determine the concentration of released polysaccharide. The lysis could be performed at any temperature between 2-37° C., preferably at a pH range of 6.0-7.5. The concentration of the detergent was typically between 0.05-0.2% depending on the particular detergent.
S. pneumoniae serotypes 1 and 6B were separately grown in Hy-Soy based media. The cultures were separately harvested and separately dispensed into tubes. […] After overnight incubation, the tubes were centrifuged and the PS content of the lysates for each serotype were determined by SEC-HPLC and compared to DOC.
(§1) Isogenic pairs of strains containing the lytA mutation were grown in a Hy-Soy based medium. The cells were harvested and dispensed into wells in a microttiter plate. The test compound was added and the culture was incubated.

R6X = assay: Microtiter plate lysis assay, strain R6X (wild type lytA); format: cell-based, S. pneumoniae; settings: compound 0.1%, 15 min at 36° C.
Description: (§2) Mitrotiter Assay: A rapid microtiter plate assay was devised for examining lytA-dependent lysis of pneumococci by different detergents or surfactants. Two pairs of isogenic strains of S. pneumoniae were used in the assay; one member of each pair was wild type for the lytA gene while the other strain carried a deletion in the lytA gene Thus, if lysis were dependent on an active lytA function, that detergent would not lyse the mutant strains. The four strains, R6X, R6X ΔlytA, D39 and D39 ΔlytA, were cultivated in HySoy medium to approximately mid-log phase (OD600˜0.2-0.8; OD600=Optical Density at 600 nm). Cells were then centrifuged and cell pellets were resuspended in HySoy medium. To each well of the microtiter plate, 100 μL, of cell suspension was added, along with 10 μL, of detergent stocks or water as a control. After about 15 minutes at 36° C., the OD600 of the samples was measured with a Spectramax® spectrophotometer (Molecular Devices, Sunnyvale, Calif.).
(§3) Isogenic pairs of strains containing the lytA mutation were grown in a Hy-Soy based medium. The cells were harvested and dispensed into wells in a microttiter plate. The test compound was added and the culture was incubated. After 15 min at 36° C., the optical density (OD600) of each well was determined using a SpectraMax® plate reader (Molecular Devices, Sunnyvale, CALIF.)(see Tables 17 and 18, which summarize results from two separate tests for exemplary compounds).

D39 ΔlytA = assay: Microtiter plate lysis assay, strain D39 ΔlytA; format: cell-based, S. pneumoniae; settings: compound 0.1%, 15 min at 36° C.
Description: as §2, §3

R6X ΔlytA = assay: Microtiter plate lysis assay, strain R6X ΔlytA; format: cell-based, S. pneumoniae; settings: compound 0.1%, 15 min at 36° C.
Description: as §2, §3

D39 = assay: Microtiter plate lysis assay, strain D39 (wild type lytA); format: cell-based, S. pneumoniae; settings: compound 0.1%, 15 min at 36° C.
Method: as §2, with “Two pairs of isogenic strains of S. pneumoniae were used in the assay; one member of each pair was wild type for the lytA gene while the other strain carried a deletion in the lytA gene Thus, if lysis were dependent on an active lytA function, that detergent would not lyse the mutant strains.” left out
as §1

[2] = tested on: Wild-type cells (R6X, D39); assay: Microtiter plate lysis assay, wild-type cells; format: cell-based, S. pneumoniae; settings: freshly prepared or frozen and thawed cells; about 15 minutes at 36° C.
Description: as §2

[3] = tested on: ΔlytA cells (R6X ΔlytA, D39 ΔlytA); assay: Microtiter plate lysis assay, ΔlytA cells; format: cell-based, S. pneumoniae; settings: freshly prepared or frozen and thawed cells; about 15 minutes at 36° C.
Description: as §2

Row | Compound | Lytic activity compared to DOC (outcome of the screening studies) [1] | Change in OD600, R6X (R6X; Test 1) [%] | Change in OD600, R6X (R6X; Test 2) [%] | Change in OD600, D39 ΔlytA (D39 ΔlytA; Test 1) [%] | Change in OD600, D39 ΔlytA (D39 ΔlytA; Test 2) [%] | Change in OD600, R6X ΔlytA (R6X ΔlytA; Test 1) [%] | Change in OD600, R6X ΔlytA (R6X ΔlytA; Test 2) [%] | Change in OD600, D39 (D39; Test 1) [%] | Change in OD600, D39 (D39; Test 2) [%] | Lysis of wild-type cells (OD600 versus medium blank) [2] | Lysis of ΔlytA cells [3]
1 | C[C@H](CCC(=O)O)[C@H]1CC[C@H]2[C@@H]3C[C@H](O)[C@@H]4C[C@H](O)CC[C@]4(C)[C@H]3CC[C@]12C [hyodeoxycholate] | non-animal derived lytic agent alternatives to DOC |  |  |  |  |  |  |  |  |  | 
2 | CCCCCCCCS(=O)(=O)O [Octanesulfonic acid] |  | 43 | 13 | 16 | −3 | 6 | 3 | 34 | 18 |  | 
3 | C[C@H](CCC(=O)O)[C@H]1CC[C@H]2[C@@H]3[C@H](O)C[C@@H]4C[C@H](O)CC[C@]4(C)[C@H]3C[C@H](O)[C@]12C [cholate] | non-animal derived lytic agent alternatives to DOC |  |  |  |  |  |  |  |  |  | 
4 | Tauroglycocholic acid |  | 51 |  | −20 |  | −16 |  | 47 |  |  | 
5 | Triton ® X-100 | non-animal derived lytic agent alternatives to DOC | 91 | 101 | 30 | 4 | 22 | −19 | 97 | 100 | lysis had occurred | did not lyse
6 | C[C@H](CCC(=O)NCC(=O)O)[C@H]1CC[C@H]2[C@@H]3CC[C@@H]4C[C@H](O)CC[C@]4(C)[C@H]3C[C@H](O)[C@]12C [glycodeoxycholate] | non-animal derived lytic agent alternatives to DOC |  |  |  |  |  |  |  |  |  | 
7 | CCCCCCCCCCCCN(C)CC(=O)O [N-lauryl sarcosine] | non-animal derived lytic agent alternatives to DOC | 100 | 102 | −44 | 14 | −34 | −40 | 89 | 101 | lysis had occurred | did not lyse
8 | C[C@H](CCC(=O)NCCS(=O)(=O)O)[C@H]1CC[C@H]2[C@@H]3[C@H](O)C[C@@H]4C[C@H](O)CC[C@]4(C)[C@H]3CC[C@]12C [taurochenodeoxycholate] | non-animal derived lytic agent alternatives to DOC |  |  |  |  |  |  |  |  |  | 
9 | C[C@H](CCC(=O)O)[C@H]1CC[C@H]2[C@@H]3CC[C@@H]4C[C@H](O)CC[C@]4(C)[C@H]3C[C@H](O)[C@]12C [Deoxycholic acid] |  | 100 | 103 | 47 | 41 | 34 | 20 | 99 | 101 |  | 
10 | CCCCCCCC/C=C\CCCCCCCC(=O)OCCOCC(OCCO)C1OCC(OCCO)C1OCCO (centres unmarked) [Tween 80] |  | 36 |  | 19 |  | 14 |  | 20 |  |  | 
11 | C[C@H](CCC(=O)O)[C@H]1CC[C@H]2[C@@H]3[C@H](O)C[C@@H]4C[C@H](O)CC[C@]4(C)[C@H]3CC[C@]12C [chenodeoxycholate] | non-animal derived lytic agent alternatives to DOC |  |  |  |  |  |  |  |  |  | 
12 | CCCCCCCCCCCCN(CCC(=O)O)CCC(=O)O [lauryl iminodipropionate] | non-animal derived lytic agent alternatives to DOC |  |  |  |  |  |  |  |  |  | 
13 | tert-Octylphenoxy poly(oxyethylene)ethanol [Igepal® CA-630] | non-animal derived lytic agent alternatives to DOC |  |  |  |  |  |  |  |  |  | 
14 | CCCCCCC(=O)O [Heptanoic acid] |  | 25 |  | −30 |  | −57 |  | 7 |  |  | 
15 | C[C@H](CCC(=O)NCCS(=O)(=O)O)[C@H]1CC[C@H]2[C@@H]3CC[C@@H]4C[C@H](O)CC[C@]4(C)[C@H]3C[C@H](O)[C@]12C [taurodeoxycholate] | non-animal derived lytic agent alternatives to DOC |  |  |  |  |  |  |  |  |  | 
16 | CCCCCCCCCCCCOS(=O)(=O)[O-].[Na+] [SDS, sodium dodecyl sulfate] | non-animal derived lytic agent alternatives to DOC | 99 | 102 | 36 | 16 | 28 | −13 | 95 | 100 | lysis had occurred | did not lyse
17 | C[C@H](CCC(=O)O)[C@H]1CC[C@H]2[C@@H]3CC[C@@H]4C[C@H](O)CC[C@]4(C)[C@H]3CC[C@]12C [Lithocholic acid] |  | 20 |  | −2 |  | 16 |  | 8 |  |  | 
18 | CCCCCCCCCCS(=O)(=O)O [decanesulfonic acid] | non-animal derived lytic agent alternatives to DOC |  |  |  |  |  |  |  |  |  | 
